Values after ≈ are worked out from the molar mass of the structure shown.

This is an account of results in ChEMBL document CHEMBL1133965, “Total synthesis of Calebin-A, preparation of its analogues, and their neuronal cell protectivity against beta-amyloid insult” (2001).

The test system of assay [1] is PC-12. Description: Evaluated for neuronal cell protectivity against beta-amyloid (25,35) insult towards PC12 rat pheochromocytoma cell; No protection. The format is functional.
In assay [2] the test system is IMR-32. Put plainly: (§1) Evaluated for neuronal cell protectivity against beta-amyloid (25,35) insult towards IMR-32 human neuroblastoma cell; No protection. The format is functional, cell-based.
The test system of assay [3] is PC-12. Put plainly: Evaluated for neuronal cell protectivity against beta-amyloid (25,35) insult towards PC12 rat pheochromocytoma cell. The format is functional. As to conditions: read-out: ED50 (the source's name).
In assay [4] the test system is IMR-32. Description: Evaluated for neuronal cell protectivity against beta-amyloid (25,35) insult towards IMR-32 human neuroblastoma cell. The class given is functional. The settings on record: read-out: ED50 (the source's name).
In assay [5] the test system is PC-12. Put plainly: Evaluated for neuronal cell protectivity against beta-amyloid (25,35) insult towards PC12 rat pheochromocytoma cell.
Assay [6] has as its system IMR-32. The description is as §1. The class given is functional.

Regarding `COc1cc(/C=C/C(=O)COC(=O)/C=C/c2ccc(OC(C)=O)c(OC(C)=O)c2)ccc1O`, the ED50 result in the assay on PC-12 [1] and with IMR-32 [2] was “No protection” throughout.

Regarding `COc1cc(/C=C/C(=O)COC(=O)/C=C/c2ccc(O)c(OC)c2)ccc1O` [CALEBI A], the EC50 is 1 µg/mL (≈ 2.6 µM) in the assay with PC-12 [3] and 1.4 µg/mL (≈ 3.64 µM) in the assay with IMR-32 [4].

In the case of `COc1cc(/C=C/C(=O)COC(=O)/C=C/c2ccc(O)cc2)ccc1O`, in the assay with PC-12 [5], the ED50 amounted to 0.7 µg/mL (≈ 1.98 µM). The EC50 in the assay with IMR-32 [6] (read-out: ED50 (the source's name)) is 1.2 µg/mL (≈ 3.39 µM).

For VITAMIN E, the ED50 result in the assay on PC-12 [1] and in the assay on IMR-32 [6] was “No protection” throughout.

On to `COc1cc(/C=C/C(=O)COC(=O)/C=C/c2ccc3c(c2)OCO3)ccc1O`, for which the ED50 result in the assay on PC-12 [1] and in the assay with IMR-32 [6] was “No protection” each time.

For `COc1cc(/C=C/C(=O)COC(=O)/C=C/c2ccc(Cl)cc2)ccc1O`, the ED50 result with PC-12 [1] and with IMR-32 [6] was “No protection” each time.

Take `COc1cc(/C=C/C(=O)COC(=O)/C=C/c2ccccc2)ccc1O`: the ED50 result in the assay with PC-12 [1] and with IMR-32 [6] was “No protection” throughout.

On to `COc1cc(/C=C/C(=O)COC(=O)/C=C/c2ccc(Br)cc2)ccc1O`, for which the ED50 result in the assay on PC-12 [1] and in the assay on IMR-32 [6] was “No protection” throughout.

Take `COc1ccc(/C=C/C(=O)OCC(=O)/C=C/c2ccc(O)c(OC)c2)cc1`: the ED50 result with PC-12 [1] and with IMR-32 [6] was “No protection” throughout.

Turning to `COc1cc(/C=C/C(=O)COC(=O)/C=C/c2cccc(O)c2)ccc1O`, the EC50 in the assay with PC-12 [3] was determined as 13.2 µg/mL (≈ 37.3 µM); with IMR-32 [4] it was 15.8 µg/mL (≈ 44.6 µM).

For the compound `COc1cc(/C=C/C(=O)CC(=O)/C=C/c2ccc(O)c(OC)c2)ccc1O` [CURCUMIN], the EC50 with PC-12 [3] stood at 7.1 µg/mL (≈ 19.3 µM); in the assay on IMR-32 [4] it was 7.4 µg/mL (≈ 20.1 µM).

With `COc1cc(/C=C/C(=O)COC(=O)/C=C/c2ccc(OC(C)=O)cc2)ccc1O`, the ED50 result in the assay on PC-12 [1] and with IMR-32 [6] was “No protection” in each case.

In the case of `COc1cc(/C=C/C(=O)COC(=O)/C=C/c2cccc(OC(C)=O)c2)ccc1O`, the ED50 result with PC-12 [1] and with IMR-32 [6] was “No protection” in each case.

With `COc1cc(/C=C/C(=O)COC(=O)/C=C/c2ccc(C)cc2)ccc1O`, the ED50 result in the assay on PC-12 [1] and with IMR-32 [6] was “No protection” in each case.

On to `COc1cc(/C=C/C(=O)COC(=O)/C=C/c2ccc(O)c(O)c2)ccc1O`, for which the EC50 in the assay on PC-12 [3] stood at 7.3 µg/mL (≈ 19.7 µM); with IMR-32 [4], 7.9 µg/mL (≈ 21.3 µM).

In the case of `COc1cccc(/C=C/C(=O)OCC(=O)/C=C/c2ccc(O)c(OC)c2)c1`, the ED50 result with PC-12 [1] and with IMR-32 [6] was “No protection” in each case.
